Assay results as given in US5573999A, “β-substituted cinnamic acid derivative” (BASF Aktiengesellschaft, priority 1991, dated 1996).

What follows are molecules tested on mitochondrial respiration (assay: Inhibition of mitochondrial respiration (rate of reduction of cytochrome c in isolated mitochondria), yeast). Conditions: DMSO control.
Format: biochemical, Saccharomyces cerevisiae
Source text: In order to determine the effect of the compounds according to the invention on mitochondrial respiration it is first necessary to isolate the mitochondria from the organisms being investigated. For this, in the case of the yeast Saccharomyces cerevisiae, the cells in a 30 to 40% strength suspension of the yeast in an aqueous solution of 0.6M mannitol+0.01M tris[hydroxymethyl]-aminomethane+0.002M disodium ethylenediaminetetraacetate (pH 6.8) are disrupted in a glass bead mill, and the extract is fractionated by differential centrifugation at 1000× g and 12000× g. The mitochondria are in the pellet from the 12000× g centrifugation.
(§1) Used as control is a mixture with the equivalent amount of pure DMSO. The inhibition at the concentration of agent in each case is then calculated as follows [formula] where ΔE is the change in extinction, at is the change in time, [formula] is the reaction rate for the control and [formula] is the reaction rate for the sample x.
(§2) The inhibition was determined in each case at a test substance concentration of 1.8/10^-5mol/l .

SMILES | % inhibition of respiration at 1.8 × 10^-5 mol/l test substance, Saccharomyces cerevisiae [%]
COC(=O)/C=C(/OC)c1ccccc1/C=C\c1cnn(-c2ccc(OC)cc2)c1 [Compound 1a.319] | 11
COC(=O)/C=C(/OC)c1ccccc1/C=C/c1ccc(C)cc1 [Compound 1a.250] | 99
COC(=O)/C=C(/OC)c1ccccc1CSc1nc(-c2ccccc2)cs1 [Compound 1a.162] | 76
CNC(=O)/C=C(/OC)c1ccccc1COc1ccc(C(C)=NOC)cc1C [Compound 1a.89] | 99
CCOC(=O)/C=C(/OC)c1ccccc1COc1ccc(/C(C)=N/OC)cc1C [Compound 1a.74, ethyl (E)-β-methoxy-2-[2-methyl-4-(1-methoximinoethyl)phenoxymethyl]cinnamate] | 99
COC(=O)/C=C(/OC)c1ccccc1/C=C/c1nnc(-c2ccccc2)s1 [Compound 1a.308] | 99
CCCCN(C)C(=O)/C=C(/OC)c1ccccc1COc1ccc(C(C)=NOC)cc1C [Compound 1a.101] | 69
COC(=O)/C=C(/OC)c1ccccc1/C=C/c1ccccc1 [Compound 1a.233] | 88
COC(=O)/C=C(/OC)c1ccccc1/C=C/C1CCOC(c2ccccc2)C1 (centres unmarked) [Compound 1a.331] | 79
COC(=O)/C=C(/OC)c1ccccc1OCc1csc(-c2ccc(F)cc2)n1 [Compound 1.71, methyl (E)-β-methoxy-2-[2-(4-fluorophenyl)-4-thiazolylmethyloxy]cinnamate] | 30
COC(=O)/C=C(/OC)c1ccccc1/C=C/C1CCCOC1 (centres unmarked) [Compound 1a.329] | 9
COC(=O)/C=C(/OC)c1ccccc1/C=C/c1cc(CC(C)C)no1 [Compound 1a.324] | 99
COC(=O)/C=C(/OC)c1ccccc1CON=C(c1ccccc1)c1ccc(Cl)cc1 [Compound 1a.358] | 99
C=CCOC(=O)/C=C(/OC)c1ccccc1COc1ccc(C(C)=NOC)cc1C [Compound 1a.83] | 78
CON=C(C)c1ccc(OCc2ccccc2/C(=C\C(=O)SC)OC)c(C)c1 [Compound 1a.86] | 97
COC(=O)/C=C(/C)c1ccccc1COc1ccccc1C [Compound 1a.108, methyl (Z)-β-methyl-2-(2-methylphenoxymethyl)cinnamate] | 98
COC(=O)/C=C(/OC)c1ccccc1/C=C/c1cnn(-c2ccc(Cl)cc2)c1 [Compound 1a.320] | 98
COC(=O)/C=C(/OC)c1ccccc1/C=C/c1cnn(-c2cccc(Cl)c2)c1 [Compound 1a.316] | 98
CCCOC(=O)/C=C(/OC)c1ccccc1COc1ccc(C(C)=NOC)cc1C [Compound 1a.75] | 70
CCNC(=O)/C=C(/OC)c1ccccc1COc1ccc(C(C)=NOC)cc1C [Compound 1a.91] | 99

SMILES | % inhibition of respiration at 1.8 × 10^-5 mol/l test substance, Saccharomyces cerevisiae [%]
COC(=O)/C=C(/OC)c1ccccc1/C=C/c1noc(-c2ccc(Cl)cc2)c1C [Compound 1a.322] | 99
COC(=O)/C=C(/OC)c1ccccc1Oc1cccc(C)c1 [Compound 1.90, methyl (E)-β-methoxy-2-(3-methylphenoxy)cinnamate] | 85
CCCCOC(=O)/C=C(/OC)c1ccccc1COc1ccc(C(C)=NOC)cc1C [Compound 1a.77] | 63
COC(=O)/C=C(/OC)c1ccccc1/C=C/c1ccccc1C [Compound 1a.247] | 99
CON=C(C)c1ccc(OCc2ccccc2/C(=C\C(=O)N(C)C)OC)c(C)c1 [Compound 1a.98] | 100
C#CCOC(=O)/C=C(/OC)c1ccccc1COc1ccc(C(C)=NOC)cc1C [Compound 1a.84] | 98
COC(=O)/C=C(\C)c1ccccc1COc1ccccc1C [Compound 1a.109, methyl (E)-β-methyl-2-(2-methylphenoxymethyl)cinnamate] | 31
CO/N=C(\C)c1ccc(OCc2ccccc2/C(=C\C(N)=O)OC)c(C)c1 [Compound 1a.88, (E)-β-methoxy-2-[2-methyl-4-(1-methoximinoethyl)phenoxymethyl]cinnamide] | 99
COC(=O)/C=C(/OC)c1ccccc1C [Compound 1.1, methyl (E)-β-methoxy-2-methylcinnamate] | 23
CO/N=C(\C)c1ccc(OCc2ccccc2/C(C)=C\C(=O)OC)c(C)c1 [Compound 1a.112, methyl (Z)-β-methyl-2-[2-methyl-4-(1-(E)-methoximinoethyl)phenoxy]methylcinnamate] | 99
CCCCOc1ccc(OCc2ccccc2/C(=C\C(=O)OC)OC)cc1 [Compound 1a.37] | 98
COC(=O)/C=C(/OC)c1ccccc1/C=C\c1cnn(-c2cccc(Cl)c2)c1 [Compound 1a.317] | 29
CO/N=C(\C)c1ccc(OCc2ccccc2/C(C)=C/C(=O)OC)c(C)c1 [Compound 1a.113, methyl (E)-β-methyl-2-[2-methyl-4-(1-(E)-methoximinoethyl)phenoxy]methylcinnamate] | 80
COC(=O)/C=C(\C)c1ccccc1CBr [Compound 1.167, methyl (E)-β-methyl-2-bromomethylcinnamate] | 99
CO/N=C(\C)c1ccc(OCc2ccccc2/C(=C\C(=O)ON=C(C)C)OC)c(C)c1 [Compound 1a.82] | 94
COC(=O)/C=C(/OC)c1ccccc1/C=C\c1ccc(C)cc1 [Compound 1a.251] | 54
COC(=O)/C=C(/OC)c1ccccc1/C=C/c1ccc(OCc2ccccc2)cc1 [Compound 1a.264, methyl 2-[2-(4-benzyloxyphenyl)-(E)-ethenyl]-(E)-β-methoxycinnamate] | 98
COC(=O)/C=C(\OC)c1ccccc1Oc1cccc(C)c1 [Compound 1.91, methyl (Z)-β-methoxy-2-(3-methylphenoxy)cinnamate] | 22
COC(=O)/C=C(/OC)c1ccccc1/C=C/C1CCOC(C2CCCOC2)C1 (centres unmarked) [Compound 1a.333] | 20

The molecules below were run on mitochondrial respiration (assay: Inhibition of mitochondrial respiration (rate of reduction of cytochrome c in isolated mitochondria), house fly). Conditions: DMSO control.
Format: biochemical, Musca domestica
Source text: It is also possible similarly to isolate mitochondria from other organisms, e.g. from the phytopathogenic fungus Drechslera sorokiniana (synonym: Helminthosporium sativum), from the dermatophyte Trichophyton mentagrophytes, which is a human pathogen, and, for example, from the house fly (Musca domestica) as insect or from the spider mite Tetranychus urticae.
as §1, §2

SMILES | % inhibition of respiration at 1.8 × 10^-5 mol/l test substance, Musca domestica [%]
COC(=O)/C=C(/OC)c1ccccc1/C=C/c1ccccc1 [Compound 1a.233] | 89
COC(=O)/C=C(/OC)c1ccccc1OCc1csc(-c2ccc(F)cc2)n1 [Compound 1.71, methyl (E)-β-methoxy-2-[2-(4-fluorophenyl)-4-thiazolylmethyloxy]cinnamate] | 18
